Source: US10660835B2, “Method for hair frizz reduction” (The Procter & Gamble Company, priority 2015, dated 2020)

Assay: DVS water uptake after soaking treatment
Settings: pH 4.2, 40 deg C, at 90% RH
Description: The Moisture Control Material is added into a 50:50 ethanol:water solvent at a concentration of 2% w/w and mixed until completely dissolved. The solution pH is adjusted with sodium hydroxide (50% w/w) to a final pH of 4.2. The soaking solution is kept at 40 deg C. for 2 hrs until a uniform composition is obtained.
One hair switch of natural virgin brown hair is placed in 200 ml of this solution for 2 hours in an oven set at 40° C. After the 2-hour period, the hair is removed, air dried and then tested for moisture uptake using DVS. For the control experiment, a natural brown virgin hair switch of the same weight is placed in a 50:50 ethanol:water solvent and treated under identical conditions.
The % water reduction is calculated as follows: […]
Hair is soaked in active solution of pH 4.2 for different intervals of time from 10 min to 2 hrs at 40 deg C. Hair Switches are air dried and prepared for % water reduction measurement using DVS vs. control (no active).

## O=C(O)c1cc(Cl)ccc1O [5-Chlorosalicylic acid]
10 min soaking
  % water reduction vs control: 9.6%
20 min soaking
  % water reduction vs control: 14.8%
30 min soaking
  % water reduction vs control: 19%
1 hr soaking
  % water reduction vs control: 26%
2 hr soaking
  % water reduction vs control: 30%
